In US12685742B2, “Application of stachyose in preparation of drug for treating castration-resistant prostate cancer” (priority 2021, dated 2026):

Experiments:
[1] = test system: C-MYC-over-expressed prostate cancer mouse model; test: C-MYC (Hi-Myc)-over-expressed spontaneous prostate cancer mouse model, prostate weight and HE staining; format: in vivo, mice
Description: A C-MYC (Hi-Myc)-over-expressed spontaneous prostate cancer mouse model was constructed, and at 4 months, the mice developed mPIN/Cancer transition. At the moment, the mice were randomly divided into an NC control group (intragastrical administration with solvents) and an Enza administration group. Then, intragastrical administration was performed every three days, and Enza administration was performed at 10 mg/Kg for a total of 30 days. Then, the necks of some mice were severed, and the prostate cancers of the mice were taken, photographed and weighed. […] Then, mice (mice aged 6 months) were randomly divided into: an NC control group (intragastrical administration with solvents all the time), an Enza single-drug group 1, an Enza single-drug group 2, a Stac single-drug group 1, a Stac single-drug group 2 and an Enza and Stac combination group, the corresponding administration treatment was performed, and all mice were intragastrically administered once every three days. The dosage of Enza in the Enza single-drug group 1 was kept at 10 mg/Kg each time, the dosage of Enza in the Enza single-drug group 2 was kept at 90 mg/Kg each time, the dosage of Stac in the Stac single-drug group 1 was kept at 80 mg/Kg each time, the dosage of Stac in the Stac single-drug group 2 was kept at 90 mg/Kg each time, the dosages of Enza and Stac in the Enza and Stac combination group were kept at 10 mg/Kg and 80 mg/Kg each time, and the administration was performed for a total of 30 days. Then, the necks of the mice were severed, and the prostate cancers of the mice were taken, photographed, weighed and subjected to experiments including immunohistochemistry.

[2] = test system: LNCaP cells; test: Production of DTP/DTEP cells from LNCaP cells by EPI and Enza, cell counting; format: cell-based; conditions: 1×10^6 LNCaP cells seeded, one value given for EPI and Enza; for number of LNCaP-DTP cells as percentage of the initial seed cells: 9 days drug treatment; for number of LNCaP-DTEP cells as percentage of the initial seed cells: 33 days drug treatment
Excerpt: In the period, for replacement, a fresh drug-containing medium was used every three days for culture, some cells (DTP cells) were collected for subsequent experiments after 9 days, and the remaining cells continued to be treated with drugs. In the period, for replacement, a fresh drug-containing medium was used every three days for culture, and DTEP cells were collected after 33 days for subsequent experiments. After the DTP and DTEP cells were produced, the cells were digested and counted to calculate the percentage of the cells in 1×10^6 cells. The collected NC, DTP and DTEP cells were used for subsequent Western Blot experiments: the three groups of cells were subjected to cell lysis, protein extraction and quantification, SDS-PAGE gel electrophoresis, membrane transfer, blocking, primary antibody incubation, secondary antibody incubation and development, then, the expression changes of AR-FL and its related target proteins and AR-Vs and its related target proteins were observed, and the expression changes of cell cycle-related proteins were observed. Flow cytometry: dead cells were stained by a PI-stained cycle kit, and cell cycle changes were determined by a flow cytometry.

[3] = test system: L-DTP (Enza) cells; test: CCK8 cell survival and CI value (Calcusyn) in drug-tolerant L-DTP (Enza) cells; format: cell-based; conditions: L-DTP (Enza) cells produced after continuous Enza for 9 days
Excerpt: (§1) Finally, Calcusyn software was used for calculating a CI value in L-DTP cells.

[4] = test system: PRDX5; test: PRDX5 immunohistochemistry of prostate tissue slices, C-MYC-over-expressed prostate cancer mouse model; format: in vivo, mice; conditions: 30 d after drug tolerance relapse, immunohistochemical positive cells
Excerpt: A C-MYC (Hi-Myc)-over-expressed spontaneous prostate cancer mouse model was constructed, and at 4 months, the mice developed mPIN/Cancer transition. […] Then, the necks of some mice were severed, and the prostate cancers of the mice were taken, photographed and weighed. […] Then, the necks of the mice were severed, and the prostate cancers of the mice were taken, photographed, weighed and subjected to experiments including immunohistochemistry.

[5] = test system: AR; test: AR immunohistochemistry of prostate tissue slices, C-MYC-over-expressed prostate cancer mouse model; format: in vivo, mice; conditions: 30 d after drug tolerance relapse, immunohistochemical positive cells
Excerpt: Then, the necks of some mice were severed, and the prostate cancers of the mice were taken, photographed and weighed. […] Then, the necks of the mice were severed, and the prostate cancers of the mice were taken, photographed, weighed and subjected to experiments including immunohistochemistry.

[6] = test system: L-DTP (EPI) cells; test: CCK8 cell survival and CI value (Calcusyn) in drug-tolerant L-DTP (EPI) cells; format: cell-based; conditions: L-DTP (EPI) cells produced after continuous EPI for 9 days
Excerpt: as §1

Row | Structure (SMILES) | prostate weight compared with NC control group ([1]; Enza 10 mg/Kg intragastric every three days, 30 days, from 4 months of age) | Average of prostate weights of mice ([1]; Enza 10 mg/Kg, 30 d of administration after drug tolerance relapse, intragastric every three days) | Average of prostate weights of mice ([1]; Enza 90 mg/Kg, 30 d of administration after drug tolerance relapse, intragastric every three days) | Average of prostate weights of mice ([1]; continued Enza administration, after 90 days, drug tolerance relapse (NC control 98.2 mg)) | Average of prostate weights of mice ([1]; continuous Enza 10 mg/Kg intragastric every three days, 30 days (NC control 88.7 mg)) | number of LNCaP-DTP cells as percentage of the initial seed cells [2] | number of LNCaP-DTEP cells as percentage of the initial seed cells [2] | inhibition rate [3] | PRDX5 expression/% ([4]; Enza 10 mg/Kg) | PRDX5 expression/% ([4]; Enza 90 mg/Kg) | AR expression/% ([5]; Stac 80 mg/Kg) | AR expression/% ([5]; Stac 90 mg/Kg) | inhibition rate [6] | Average of prostate weights of mice ([1]; Stac 80 mg/Kg, 30 d of administration after drug tolerance relapse, intragastric every three days) | Average of prostate weights of mice ([1]; Stac 90 mg/Kg, 30 d of administration after drug tolerance relapse, intragastric every three days) | treatment effect of single use after drug tolerance (prostate weight) ([1]; single use of Stac compared with single use of Enza, after drug tolerance relapse) | PRDX5 expression/% ([4]; Stac 80 mg/Kg) | PRDX5 expression/% ([4]; Stac 90 mg/Kg)
1 | CNC(=O)c1ccc(N2C(=S)N(c3ccc(C#N)c(C(F)(F)F)c3)C(=O)C2(C)C)cc1F [Enza, Enzalutamide] | reduced by half | 54.42 mg | 53.83 mg | 77.1 mg | 43.9 mg | 103.11% | 110.92% | no obvious inhibiting effect | 78.4% | 80.0% | – | – | – | – | – | – | – | –
2 | OC[C@H]1O[C@H](OC[C@H]2O[C@H](OC[C@H]3O[C@H](O[C@]4(CO)O[C@H](CO)[C@@H](O)[C@@H]4O)[C@H](O)[C@@H](O)[C@@H]3O)[C@H](O)[C@@H](O)[C@H]2O)[C@H](O)[C@@H](O)[C@H]1O [Stac, Stachyose] | – | – | – | – | – | – | – | 62.47% | – | – | 61.5% | 57.4% | 67.48% | 50.86 mg | 47.50 mg | better than that of the single use of Enza | 68.2% | 60.9%
3 | CC(C)(c1ccc(OCC(O)CO)cc1)c1ccc(OCC(O)CCl)cc1 (stereo not drawn) [EPI, EPI-001] | – | – | – | – | – | 103.11% | 110.92% | – | – | – | – | – | no obvious inhibiting effect | – | – | – | – | –
